Results as given in patent US9840513B2 (AbbVie S.à.r.l., priority 2015, dated 2017).

Columns and labels:
[1] = target: T1, F508delCFTR cell surface expression in CFBE41o-F508delCFTR-HRP cells (Homo sapiens, UniProt P13569, DEL508-508); assay: Cell Surface Expression-Horse Radish Peroxidase (CSE-HRP) Assay; format: cell-based; settings: for EC50: CFBE41o-F508delCFTR-HRP cells, 18-24 hours at 33° C., 8-point curve, highest concentration 20 μM; for Maximum % activity (%): maximum at any tested concentration, normalized to on-plate positive control (3 μM)
T1 construct: fused on or other part: Horseradish peroxidase (HRP) reporter inserted in the fourth exofacial (extracellular) loop of CFTR; expression is doxycycline-inducible
Summary of the method: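 Correctors incubated 18-24 h at 33 °C on doxycycline-induced (0.5 μg/mL, 72 h) CFBE41o-F508delCFTR-HRP cells, 3-fold series from 20 μM. After DPBS washes, luminol luminescence read; activity expressed relative to DMSO and a 3 μM positive control, EC50 fitted from triplicate plates.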

[2] = target: T2, F508delCFTR in primary hBE cells with F508del/F508del CFTR mutation (Homo sapiens, UniProt P13569, DEL508-508); assay: Transepithelial Clamp Circuit on Human Bronchial Epithelial Cells Conductance Assay (hBE-TECC); format: cell-based; settings: for EC50: primary hBE cells F508del/F508del, 18-24 hours at 37° C., equivalent short circuit current, 6 concentrations; for Maximum % activity (%): relative to positive control (3 μM) coupled with control potentiator
T2 construct: cells isolated from CF patients with the homozygous mutation; endogenous in cells; host or cells: primary human bronchial epithelial (hBE) cells from F508del/F508del CF patients
Summary of the method: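 Primary F508del/F508del hBE cells grown 35 days at air-liquid interface, treated basolaterally with correctors 18-24 h at 37° C. Ieq (Vt/Rt) at 36.5° C, pH 7.4, after benzamil, forskolin 10 μM, control potentiator, bumetanide; 6 concentrations normalized to DMSO and 3 μM positive-control corrector, EC50 by 4-parameter fit.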

T2 sequence (P13569 with tags, fused parts or gaps DEL508-508): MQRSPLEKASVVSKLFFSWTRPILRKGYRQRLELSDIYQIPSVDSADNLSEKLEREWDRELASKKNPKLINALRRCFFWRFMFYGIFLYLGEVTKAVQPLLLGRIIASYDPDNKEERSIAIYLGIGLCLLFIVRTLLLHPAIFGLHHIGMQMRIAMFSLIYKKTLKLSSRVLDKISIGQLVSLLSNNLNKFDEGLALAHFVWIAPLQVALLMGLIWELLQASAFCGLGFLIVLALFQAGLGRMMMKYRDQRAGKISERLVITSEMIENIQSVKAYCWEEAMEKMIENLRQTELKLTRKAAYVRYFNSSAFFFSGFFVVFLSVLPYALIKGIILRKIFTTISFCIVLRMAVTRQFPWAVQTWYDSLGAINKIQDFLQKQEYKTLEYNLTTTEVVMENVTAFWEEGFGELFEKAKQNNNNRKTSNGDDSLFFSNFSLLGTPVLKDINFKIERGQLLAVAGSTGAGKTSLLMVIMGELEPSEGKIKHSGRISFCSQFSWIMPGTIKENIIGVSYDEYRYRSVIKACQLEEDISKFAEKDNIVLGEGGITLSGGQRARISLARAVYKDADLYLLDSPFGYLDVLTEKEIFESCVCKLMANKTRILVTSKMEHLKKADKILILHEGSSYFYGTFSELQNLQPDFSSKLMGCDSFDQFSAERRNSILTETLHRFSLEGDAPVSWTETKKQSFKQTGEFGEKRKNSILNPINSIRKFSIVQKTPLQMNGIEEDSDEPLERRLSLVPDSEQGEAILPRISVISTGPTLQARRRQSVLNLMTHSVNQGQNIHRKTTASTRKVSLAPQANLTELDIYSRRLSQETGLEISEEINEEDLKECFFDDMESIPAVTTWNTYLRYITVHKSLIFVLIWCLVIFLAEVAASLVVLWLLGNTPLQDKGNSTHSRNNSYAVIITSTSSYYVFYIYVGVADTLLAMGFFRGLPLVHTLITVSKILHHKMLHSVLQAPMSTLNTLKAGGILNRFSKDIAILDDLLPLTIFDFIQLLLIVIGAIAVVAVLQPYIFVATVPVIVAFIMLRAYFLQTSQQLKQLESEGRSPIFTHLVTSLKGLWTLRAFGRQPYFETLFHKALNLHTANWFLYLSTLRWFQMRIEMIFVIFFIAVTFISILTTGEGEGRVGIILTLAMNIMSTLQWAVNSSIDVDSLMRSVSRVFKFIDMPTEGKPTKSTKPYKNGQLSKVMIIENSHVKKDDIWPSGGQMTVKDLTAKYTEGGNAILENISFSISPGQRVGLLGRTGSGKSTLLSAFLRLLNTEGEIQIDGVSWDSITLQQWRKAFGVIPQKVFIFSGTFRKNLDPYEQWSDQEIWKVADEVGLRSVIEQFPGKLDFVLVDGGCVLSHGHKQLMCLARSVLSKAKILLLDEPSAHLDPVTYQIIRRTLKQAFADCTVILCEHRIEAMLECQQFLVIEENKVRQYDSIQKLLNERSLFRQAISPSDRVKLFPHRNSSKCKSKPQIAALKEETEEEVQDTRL
T1 sequence (P13569 with tags, fused parts or gaps DEL508-508 limits assumed): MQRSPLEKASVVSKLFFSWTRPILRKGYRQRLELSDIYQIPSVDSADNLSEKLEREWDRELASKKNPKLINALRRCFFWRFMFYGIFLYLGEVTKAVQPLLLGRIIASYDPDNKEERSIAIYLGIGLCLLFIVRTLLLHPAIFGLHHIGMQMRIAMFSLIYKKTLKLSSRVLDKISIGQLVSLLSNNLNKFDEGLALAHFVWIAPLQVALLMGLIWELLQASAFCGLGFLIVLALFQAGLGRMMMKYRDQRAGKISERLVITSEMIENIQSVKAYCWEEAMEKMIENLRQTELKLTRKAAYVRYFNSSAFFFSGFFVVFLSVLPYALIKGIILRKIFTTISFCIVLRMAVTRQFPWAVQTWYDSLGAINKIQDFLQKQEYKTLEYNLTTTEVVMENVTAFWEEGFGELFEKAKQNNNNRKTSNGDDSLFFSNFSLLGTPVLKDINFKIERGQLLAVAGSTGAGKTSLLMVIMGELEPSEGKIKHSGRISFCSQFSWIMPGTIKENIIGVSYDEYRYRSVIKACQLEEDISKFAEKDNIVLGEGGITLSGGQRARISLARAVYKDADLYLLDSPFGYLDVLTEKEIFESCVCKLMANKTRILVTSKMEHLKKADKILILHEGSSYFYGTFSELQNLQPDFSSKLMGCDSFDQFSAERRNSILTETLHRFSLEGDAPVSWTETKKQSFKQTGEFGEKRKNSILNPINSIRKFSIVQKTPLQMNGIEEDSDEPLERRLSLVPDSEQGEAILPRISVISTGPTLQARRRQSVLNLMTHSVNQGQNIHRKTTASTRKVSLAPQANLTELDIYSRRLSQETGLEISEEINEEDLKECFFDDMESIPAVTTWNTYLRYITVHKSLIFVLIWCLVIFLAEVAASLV
T1 sequence (P13569 919-1480 limits assumed, stated change not applied): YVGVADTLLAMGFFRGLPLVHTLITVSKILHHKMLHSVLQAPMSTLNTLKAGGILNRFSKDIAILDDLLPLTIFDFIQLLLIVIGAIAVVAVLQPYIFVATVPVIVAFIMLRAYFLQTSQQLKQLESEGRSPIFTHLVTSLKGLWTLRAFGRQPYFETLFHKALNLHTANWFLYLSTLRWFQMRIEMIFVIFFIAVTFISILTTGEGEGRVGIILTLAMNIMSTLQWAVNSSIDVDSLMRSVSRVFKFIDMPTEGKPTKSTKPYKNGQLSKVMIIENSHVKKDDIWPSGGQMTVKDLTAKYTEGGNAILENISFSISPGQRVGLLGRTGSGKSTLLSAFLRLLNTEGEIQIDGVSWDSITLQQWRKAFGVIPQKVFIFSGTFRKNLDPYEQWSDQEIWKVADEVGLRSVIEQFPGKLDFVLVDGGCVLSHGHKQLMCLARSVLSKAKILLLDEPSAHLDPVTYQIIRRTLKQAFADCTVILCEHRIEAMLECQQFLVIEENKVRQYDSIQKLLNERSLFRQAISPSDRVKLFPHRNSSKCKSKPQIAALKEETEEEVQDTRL

Row | Compound | EC50 [1] | Maximum % activity (%) [1] | EC50 [2] | Maximum % activity (%) [2]
1 | COc1ccc2c(c1)O[C@@H](c1ccc(CO)cn1)C[C@H]2NC(=O)[C@@]1(C)COc2cc3c(cc21)OC(F)(F)O3 [Example 174, (7R)-2,2-difluoro-N-{(2R,4R)-2-[5-(hydroxymethyl)pyridin-2-yl]-7-methoxy-3,4-dihydro-2H-1-benzopyran-4-yl}-7-methyl-6,7-dihydro-2H-furo[2,3-f][1,3]benzodioxole-7-carboxamide] | 120 nM | 118% | 15 nM | 94%
2 | COc1ccc2c(c1)O[C@@H](c1cnc(C(O)CO)cn1)C[C@H]2NC(=O)[C@@]1(C)COc2cc3c(cc21)OC(F)(F)O3 (stereo partly drawn) [Example 175, (7R)—N-{(2R,4R)-2-[5-(1,2-dihydroxyethyl)pyrazin-2-yl]-7-methoxy-3,4-dihydro-2H-1-benzopyran-4-yl}-2,2-difluoro-7-methyl-6,7-dihydro-2H-furo[2,3-f][1,3]benzodioxole-7-carboxamide] | 220 nM | 139% | 43 nM | 107%
3 | C[C@]1(C(=O)N[C@@H]2C[C@H](c3ccc(CO)cn3)Oc3cc(OC(F)(F)F)ccc32)COc2cc3c(cc21)OC(F)(F)O3 [Example 177, (7R)-2,2-difluoro-N-[(2R,4R)-2-[5-(hydroxymethyl)pyridin-2-yl]-7-(trifluoromethoxy)-3,4-dihydro-2H-1-benzopyran-4-yl]-7-methyl-6,7-dihydro-2H-furo[2,3-f][1,3]benzodioxole-7-carboxamide] | 90 nM | 127% | 13 nM | 99%
4 | COc1ccc2c(c1)O[C@@H](c1ccc(CO)nc1)C[C@H]2NC(=O)[C@@]1(C)COc2cc3c(cc21)OC(F)(F)O3 [Example 178, (7R)-2,2-difluoro-N-{(2R,4R)-2-[6-(hydroxymethyl)pyridin-3-yl]-7-methoxy-3,4-dihydro-2H-1-benzopyran-4-yl}-7-methyl-6,7-dihydro-2H-furo[2,3-f][1,3]benzodioxole-7-carboxamide] | 290 nM | 158% | 66 nM | 108%
5 | CC(C)(CO)c1cc2cc(NC(=O)[C@@]3(C)COc4cc5c(cc43)OC(F)(F)O5)c(F)cc2n1C[C@@H](O)CC#N [Example 179, (7R)—N-{1-[(2S)-3-cyano-2-hydroxypropyl]-6-fluoro-2-(1-hydroxy-2-methylpropan-2-yl)-1H-indol-5-yl}-2,2-difluoro-7-methyl-6,7-dihydro-2H-furo[2,3-f][1,3]benzodioxole-7-carboxamide] | 280 nM | 108% | 147 nM | 70%
6 | COc1ccc2c(c1)O[C@@H](c1ccc(=O)[nH]n1)C[C@H]2NC(=O)[C@@]1(C)COc2cc3c(cc21)OC(F)(F)O3 [Example 197, (7R)-2,2-difluoro-N-[(2R,4R)-7-methoxy-2-(6-oxo-1,6-dihydropyridazin-3-yl)-3,4-dihydro-2H-1-benzopyran-4-yl]-7-methyl-6,7-dihydro-2H-furo[2,3-f][1,3]benzodioxole-7-carboxamide] | 40 nM | 130% | 6 nM | 105%
7 | CC1(C)COC(C)(C)c2c1n(C[C@@H](O)CO)c1cc(F)c(NC(=O)[C@@]3(C)COc4cc5c(cc43)OC(F)(F)O5)cc21 [Example 206, (7R)—N-{5-[(2R)-2,3-dihydroxypropyl]-7-fluoro-1,1,4,4-tetramethyl-1,3,4,5-tetrahydropyrano[4,3-b]indol-8-yl}-2,2-difluoro-7-methyl-6,7-dihydro-2H-furo[2,3-f][1,3]benzodioxole-7-carboxamide] | 1950 nM | 84% | 1030 nM | 79%
8 | COc1ccc2c(c1)O[C@@H](c1ccc(C(=O)N3CCN(CCO)CC3)cn1)C[C@H]2NC(=O)[C@@]1(C)COc2cc3c(cc21)OC(F)(F)O3 [Example 213, (7R)-2,2-difluoro-N-[(2R,4R)-2-{5-[4-(2-hydroxyethyl)piperazine-1-carbonyl]pyridin-2-yl}-7-methoxy-3,4-dihydro-2H-1-benzopyran-4-yl]-7-methyl-6,7-dihydro-2H-furo[2,3-f][1,3]benzodioxole-7-carboxamide] | 80 nM | 117% | 41 nM | 82%
9 | COc1ccc2c(c1)O[C@@H](c1ccc(C(=O)NCC(C)(C)O)cn1)C[C@H]2NC(=O)[C@@]1(C)COc2cc3c(cc21)OC(F)(F)O3 [Example 214, 6-[(2R,4R)-4-{[(7R)-2,2-difluoro-7-methyl-6,7-dihydro-2H-furo[2,3-f][1,3]benzodioxole-7-carbonyl]amino}-7-methoxy-3,4-dihydro-2H-1-benzopyran-2-yl]-N-(2-hydroxy-2-methylpropyl)pyridine-3-carboxamide] | 60 nM | 114% | 16 nM | 88%
10 | COc1ccc2c(c1)O[C@@H](c1ccc(C(=O)N3CCOCC3)cn1)C[C@H]2NC(=O)[C@@]1(C)COc2cc3c(cc21)OC(F)(F)O3 [Example 220, (7R)-2,2-difluoro-N-{(2R,4R)-7-methoxy-2-[5-(morpholine-4-carbonyl)pyridin-2-yl]-3,4-dihydro-2H-1-benzopyran-4-yl}-7-methyl-6,7-dihydro-2H-furo[2,3-f][1,3]benzodioxole-7-carboxamide] | 10 nM | 112% | 10 nM | 94%
11 | COc1ccc2c(c1)O[C@@H](c1ccc(C(=O)NCC(O)CO)cn1)C[C@H]2NC(=O)[C@@]1(C)COc2cc3c(cc21)OC(F)(F)O3 (stereo partly drawn) [Example 243, 6-[(2R,4R)-4-{[(7R)-2,2-difluoro-7-methyl-6,7-dihydro-2H-furo[2,3-f][1,3]benzodioxole-7-carbonyl]amino}-7-methoxy-3,4-dihydro-2H-1-benzopyran-2-yl]-N-(2,3-dihydroxypropyl)pyridine-3-carboxamide] | 70 nM | 112% | 21 nM | 87%
12 | COc1ccc2c(c1)O[C@@H](c1ccc(C(=O)N3C[C@@H](O)[C@H](O)C3)cn1)C[C@H]2NC(=O)[C@@]1(C)COc2cc3c(cc21)OC(F)(F)O3 [Example 248, (7R)—N-[(2R,4R)-2-{5-[(3R,4R)-3,4-dihydroxypyrrolidine-1-carbonyl]pyridin-2-yl}-7-methoxy-3,4-dihydro-2H-1-benzopyran-4-yl]-2,2-difluoro-7-methyl-6,7-dihydro-2H-furo[2,3-f][1,3]benzodioxole-7-carboxamide] | 90 nM | 116% | 32 nM | 105%
13 | COc1ccc2c(c1)O[C@@H](c1cnc(N3C[C@@H](O)[C@H](O)C3)cn1)C[C@H]2NC(=O)[C@@]1(C)COc2cc3c(cc21)OC(F)(F)O3 [Example 250, (7R)—N-[(2R,4R)-2-{5-[(3R,4R)-3,4-dihydroxypyrrolidin-1-yl]pyrazin-2-yl}-7-methoxy-3,4-dihydro-2H-1-benzopyran-4-yl]-2,2-difluoro-7-methyl-6,7-dihydro-2H-furo[2,3-f][1,3]benzodioxole-7-carboxamide] | 20 nM | 135% | 1 nM | 95%
